Molecular target: NQO1 protein (Homo sapiens, UniProt P15559)
Assay: In vitro NQO1 enzyme activity assay (cytochrome C reduction, absorbance at 550 nm)
Assay type: biochemical
Conditions: NQO1 2 ng
Procedure: In order to evaluate the activity of the synthesized compound in NQO1, the experiments were performed as follows:
The synthesized compound was dissolved in DMSO to make a 10 mM stock solution, which was further diluted with DMSO to 250 μM so as to prepare a working solution. For experimental groups, the working solution of the compound was added to an enzyme reaction solution in which 50 μL of 1.54 mM Cytochrome C solution was added to 900 μL of 50 mM Tris-HCl (pH7.5) containing 0.14% BSA. For negative control groups, DMSO not containing the compound of the invention was added to the enzyme reaction solution as above. For each experimental and control group, 20 μL of 100 ng/mL NQO1 protein was added, and then 10 μL of 20 mM NADH was added to bring up the total volume to 1 mL. The change of absorbance was measured at 550 nm for 10 minutes using 1 mL cuvette. The kinetics of reaction was measured by the increase of absorbance as the cytochrome C was reduced at 550 nm over 10 minutes. The activity of NQO1 was measured by the amount of cytochrome C that is being reduced (nmol cytochrome C that was reduced/min/ug NQO1 protein). • Absorption coefficient of Cytochrome C: 21.1 (μmol/mL)^−1cm^−1 • BSA: Bovine Serum Albumin • […]: Tris(hydroxymethyl)aminomethane hydrochloride (buffer solution) • Equipment=Cary 100 UV-Vis Spectrophotometer • The results are shown in Tables 1 to 8.

Chain of NQO1 protein (P15559 whole entry, species assumed): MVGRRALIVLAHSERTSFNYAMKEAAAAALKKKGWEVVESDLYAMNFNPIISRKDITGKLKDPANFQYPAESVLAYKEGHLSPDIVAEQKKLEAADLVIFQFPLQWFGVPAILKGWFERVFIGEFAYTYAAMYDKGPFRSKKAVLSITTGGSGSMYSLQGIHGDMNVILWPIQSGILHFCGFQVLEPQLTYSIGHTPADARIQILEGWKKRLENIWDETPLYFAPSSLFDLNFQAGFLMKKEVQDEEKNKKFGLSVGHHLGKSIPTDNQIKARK

Compound	NQO1 activity assay Cytochrome C reduced/min/μg NQO1 protein (10 nM Compound (Table 1))	further results
O=C1C(=O)c2ncc(-c3ccc(F)cc3)n2-c2ccccc21 [Compound 2, 1-(4-Fluorophenyl)imidazo[1,2-a]quinolin-4,5-dione]	455 nmol cytochrome C that was reduced/min/ug NQO1 protein	
CNC(=O)c1nc2n(c1-c1ccccc1)-c1ccccc1C(=O)C2=O [Compound 8, N-methyl-4,5-dioxo-1-phenyl-4,5-dihydroimidazo[1,2-a]quinolin-2-carboxamide]	112 nmol cytochrome C that was reduced/min/ug NQO1 protein	
Cc1c2c(nn1S(=O)(=O)c1ccc(F)cc1)-c1ccccc1C(=O)C2=O [Compound 45, 3-Methyl-2-(4-Fluorophenylsulfonyl)-2H-benzo[g]indazol-4,5-dione]		NQO1 activity assay Cytochrome C reduced/min/μg NQO1 protein (50 nM Compound (Table 5)): 2092 nmol cytochrome C that was reduced/min/ug NQO1 protein
Cc1nn(CCCc2ccccc2)c2c1C(=O)C(=O)c1ccccc1-2 [Compound 67, 3-Methyl-1-(3-phenylpropyl)-1H-benzo[g]indazol-4,5-dione]		NQO1 activity assay Cytochrome C reduced/min/μg NQO1 protein (50 nM Compound (Table 8)): 1836 nmol cytochrome C that was reduced/min/ug NQO1 protein
CN(C)C(=O)c1nc2n(c1-c1ccccc1)-c1ccccc1C(=O)C2=O [Compound 7, N,N-dimethyl-4,5-dioxo-1-phenyl-4,5-dihydroimidazo[1,2-a]quinolin-2-carboxamide]	96 nmol cytochrome C that was reduced/min/ug NQO1 protein	
Cc1c2c(nn1S(=O)(=O)c1nccn1C)-c1ccccc1C(=O)C2=O [Compound 61, 3-Methyl-2-(1-methyl-1H-imidazol-2-ylsulfonyl)-2H-benzo[g]indazol-4,5-dione]		NQO1 activity assay Cytochrome C reduced/min/μg NQO1 protein (50 nM Compound (Table 8)): 2289 nmol cytochrome C that was reduced/min/ug NQO1 protein
Cc1c2c(nn1CCc1ccc(F)cc1)-c1ccccc1C(=O)C2=O [Compound 66, 2-(4-Fluorophenethyl)-3-methyl-2H-benzo[g]indazol-4,5-dione]		NQO1 activity assay Cytochrome C reduced/min/μg NQO1 protein (50 nM Compound (Table 4)): 3001 nmol cytochrome C that was reduced/min/ug NQO1 protein
Cc1c2c(nn1S(=O)(=O)c1ccccc1)-c1ccccc1C(=O)C2=O [Compound 44, 3-Methyl-2-(phenylsulfonyl)-2H-benzo[g]indazol-4,5-dione]		NQO1 activity assay Cytochrome C reduced/min/μg NQO1 protein (50 nM Compound (Table 3)): 2169 nmol cytochrome C that was reduced/min/ug NQO1 protein
Cc1c2c(nn1S(=O)(=O)c1ccccc1Cl)-c1ccccc1C(=O)C2=O [Compound 46, 2-(2-Chlorophenylsulfonyl)-3-methyl-2H-benzo[g]indazol-4,5-dione]		NQO1 activity assay Cytochrome C reduced/min/μg NQO1 protein (50 nM Compound (Table 5)): 1522 nmol cytochrome C that was reduced/min/ug NQO1 protein
Cc1nn(-c2cc(F)cc(F)c2)c2c1C(=O)C(=O)c1ccccc1-2 [Compound 27, 1-(3,5-Difluorophenyl)-3-methyl-1H-benzo[g]indazol-4,5-dione]	415 nmol cytochrome C that was reduced/min/ug NQO1 protein	
CC(C)c1nn(-c2ccccc2)c2c1C(=O)C(=O)c1ccccc1-2 [Compound 10, 3-Isopropyl-1-phenyl-1H-benzo[g]indazol-4,5-dione]	138 nmol cytochrome C that was reduced/min/ug NQO1 protein	
Cc1nn(-c2ccccc2)c2c1C(=O)C(=O)c1cc(F)ccc1-2 [Compound 35, 7-Fluoro-3-methyl-1-phenyl-1H-benzo[g]indazol-4,5-dione]	694 nmol cytochrome C that was reduced/min/ug NQO1 protein	
Cc1ccc(S(=O)(=O)n2nc3c(c2C)C(=O)C(=O)c2ccccc2-3)cc1 [Compound 50, 3-Methyl-2-tosyl-2H-benzo[g]indazol-4,5-dione]		NQO1 activity assay Cytochrome C reduced/min/μg NQO1 protein (50 nM Compound (Table 6)): 1542 nmol cytochrome C that was reduced/min/ug NQO1 protein
O=C1C(=O)c2c(-c3ccc(F)cc3)nn(-c3ccccc3)c2-c2ccccc21 [Compound 14, 3-(4-Fluorophenyl)-1-phenyl-1H-benzo[g]indazol-4,5-dione]	156 nmol cytochrome C that was reduced/min/ug NQO1 protein	
CC(C)c1cnc2n1-c1ccccc1C(=O)C2=O [Compound 3, 1-Isopropylimidazo[1,2-a]quinolin-4,5-dione]	755 nmol cytochrome C that was reduced/min/ug NQO1 protein	
Cc1c2c(nn1S(=O)(=O)c1ccc(C(F)(F)F)cc1)-c1ccccc1C(=O)C2=O [Compound 57, 3-Methyl-2-(4-(trifluoromethyl)phenylsulfonyl)-2H-benzo[g]indazol-4,5-dione]		NQO1 activity assay Cytochrome C reduced/min/μg NQO1 protein (50 nM Compound (Table 7)): 1868 nmol cytochrome C that was reduced/min/ug NQO1 protein
O=C1C(=O)c2cnn(-c3ccccc3)c2-c2ccccc21 [Compound 33, 1-Phenyl-1H-benzo[g]indazol-4,5-dione]	436 nmol cytochrome C that was reduced/min/ug NQO1 protein	

Compound	NQO1 activity assay Cytochrome C reduced/min/μg NQO1 protein (10 nM Compound (Table 1))	further results
Cc1c2c(nn1S(=O)(=O)c1ccc(F)c(F)c1)-c1ccccc1C(=O)C2=O [Compound 58, 2-(3,4-Difluorophenylsulfonyl)-3-methyl-2H-benzo[g]indazol-4,5-dione]		NQO1 activity assay Cytochrome C reduced/min/μg NQO1 protein (50 nM Compound (Table 8)): 1913 nmol cytochrome C that was reduced/min/ug NQO1 protein
Cc1nn(CCc2ccc(F)cc2)c2c1C(=O)C(=O)c1ccccc1-2 [Compound 65, 1-(4-Fluorophenethyl)-3-methyl-1H-benzo[g]indazol-4,5-dione]		NQO1 activity assay Cytochrome C reduced/min/μg NQO1 protein (50 nM Compound (Table 4)): 3714 nmol cytochrome C that was reduced/min/ug NQO1 protein
Cc1nn(C)c2c1C(=O)C(=O)c1ccccc1-2 [Compound 22, 1,3-Dimethyl-1H-benzo[g]indazol-4,5-dione]	481 nmol cytochrome C that was reduced/min/ug NQO1 protein	
Cc1nn(CCc2ccccc2)c2c1C(=O)C(=O)c1ccccc1-2 [Compound 64, 3-Methyl-1-phenethyl-1H-benzo[g]indazol-4,5-dione]		NQO1 activity assay Cytochrome C reduced/min/μg NQO1 protein (50 nM Compound (Table 2)): 2081 nmol cytochrome C that was reduced/min/ug NQO1 protein
COC(=O)c1ccc(S(=O)(=O)n2nc3c(c2C)C(=O)C(=O)c2ccccc2-3)cc1 [Compound 52, Methyl 4-(3-methyl-4,5-dioxo-4,5-dihydro-2H-benzo[g]indazol-2-ylsulfonyl)benzoate]		NQO1 activity assay Cytochrome C reduced/min/μg NQO1 protein (50 nM Compound (Table 7)): 2179 nmol cytochrome C that was reduced/min/ug NQO1 protein
O=C1C(=O)c2c(-c3ccccc3)nn(-c3ccccc3)c2-c2ccccc21 [Compound 13, 1,3-Diphenyl-1H-benzo[g]indazol-4,5-dione]	198 nmol cytochrome C that was reduced/min/ug NQO1 protein	
Cc1nn(C(C)C)c2c1C(=O)C(=O)c1ccccc1-2 [Compound 20, 1-Isopropyl-3-methyl-1H-benzo[g]indazol-4,5-dione]	918 nmol cytochrome C that was reduced/min/ug NQO1 protein	
Cc1nn(-c2ccncc2)c2c1C(=O)C(=O)c1ccccc1-2 [Compound 41, 3-Methyl-1-(pyridin-4-yl)-1H-benzo[g]indazol-4,5-dione]		NQO1 activity assay Cytochrome C reduced/min/μg NQO1 protein (50 nM Compound (Table 3)): 1617 nmol cytochrome C that was reduced/min/ug NQO1 protein
Cc1nn(-c2ccccn2)c2c1C(=O)C(=O)c1ccccc1-2 [Compound 30, 3-Methyl-1-(pyridin-2-yl)-1H-benzo[g]indazol-4,5-dione]	494 nmol cytochrome C that was reduced/min/ug NQO1 protein	
CC(C)OCc1nn(-c2ccccc2)c2c1C(=O)C(=O)c1ccccc1-2 [Compound 19, 3-(Isopropoxymethyl)-1-phenyl-1H-benzo[g]indazol-4,5-dione]	106 nmol cytochrome C that was reduced/min/ug NQO1 protein	
CCCCCCCc1nn(-c2ccccc2)c2c1C(=O)C(=O)c1ccccc1-2 [Compound 11, 3-Heptyl-1-phenyl-1H-benzo[g]indazol-4,5-dione]	203 nmol cytochrome C that was reduced/min/ug NQO1 protein	
Cc1c2c(nn1S(=O)(=O)N1CCOCC1)-c1ccccc1C(=O)C2=O [Compound 62, 3-Methyl-2-(morpholinosulfonyl)-2H-benzo[g]indazol-4,5-dione]		NQO1 activity assay Cytochrome C reduced/min/μg NQO1 protein (50 nM Compound (Table 8)): 1916 nmol cytochrome C that was reduced/min/ug NQO1 protein
Cc1c2c(nn1CCc1ccccc1F)-c1ccccc1C(=O)C2=O [Compound 70, 2-(2-Fluorophenethyl)-3-methyl-2H-benzo[g]indazol-4,5-dione]		NQO1 activity assay Cytochrome C reduced/min/μg NQO1 protein (50 nM Compound (Table 8)): 1611 nmol cytochrome C that was reduced/min/ug NQO1 protein
Cc1nn(-c2cccnc2)c2c1C(=O)C(=O)c1ccccc1-2 [Compound 31, 3-Methyl-1-(pyridin-3-yl)-1H-benzo[g]indazol-4,5-dione]	900 nmol cytochrome C that was reduced/min/ug NQO1 protein	
O=C1C(=O)c2ncc(-c3ccccc3)n2-c2ccccc21 [Compound 1, 1-Phenylimidazo[1,2-a]quinolin-4,5-dione]	658 nmol cytochrome C that was reduced/min/ug NQO1 protein	
Cc1c2c(nn1S(=O)(=O)c1cccc(Cl)c1)-c1ccccc1C(=O)C2=O [Compound 47, 2-(3-Chlorophenylsulfonyl)-3-methyl-2H-benzo[g]indazol-4,5-dione]		NQO1 activity assay Cytochrome C reduced/min/μg NQO1 protein (50 nM Compound (Table 5)): 1277 nmol cytochrome C that was reduced/min/ug NQO1 protein

From patent US12570613B2, “Imidazoquinoline or benzoindazolone compound and intermediate for preparing same” (LMITO THERAPEUTICS INC., priority 2020, dated 2026)
